Where two headings read alike, the source gives them in different places.
Legend:
[1] = molecular target: T1, AMPA receptor GluA2/3 (Homo sapiens, UniProt P42262+P42263); assay: Two-electrode voltage clamp, AMPA receptor GluA2/3 expressed in Xenopus oocytes; type: cell-based
T1 construct: expressed in transfected cells; host or cells: Xenopus laevis oocytes injected with cRNA (1:1 mix)
Protocol: The AMPA receptor (flip isoform) cDNAs inserted in a SP6 polymerase expression vector (pSP6T) were a generous gift from Prof. Ralf Schoepfer (NPP, UCL). […] AMPA receptor cRNAs were mixed in a nominal 1:1 ratio and ∼5 ng was injected per oocyte.
Xenopus laevis oocytes were purchased from the European Xenopus Resource Centre, University of Portsmouth. Stage V to VI oocytes were mechanically dissected and then subjected to gentle shaking for ∼30–50 min at room temperature with modified Barth’s solution (in mM): 88 NaCl, 1 KCl, 2.4 NaHCO3, 0.82 MgCl2, 0.77 CaCl2, 15 Tris-Cl, adjusted to pH 7.4 with NaOH (Sigma-Aldrich), supplemented with 50 IU/ml penicillin and 50 µg/ml streptomycin (Invitrogen) and 50 µg/ml tetracycline (Sigma-Aldrich) and 1% collagenase (type 1A). Healthy oocytes were manually defolliculated and the injections of cRNA for homomeric subunits alone (GluA1), or heteromeric mixtures of two subunits together (GluA1/GluA2 or GluA2/GluA3) were made using an automated Drummond Nanoinject II injector. The oocytes were then incubated at 17°C in modified Barth’s solution for at least 48 h before use in electrophysiological recordings.
Experiments were performed at room temperature (∼21–23°C). […] Current and voltage electrodes were filled with 300 mM KCl and made from thin-walled borosilicate glass (GC150TF-7.5, Harvard Apparatus) using a PC-10 electrode puller (Narashige Instruments) and had resistances of 0.5–2 MΩ. […] Compounds were dissolved in distilled water or DMSO and dissolved in bathing solution to achieve their final concentrations during experiments, and were applied under gravity flow during the experiment by using a multi-valve perfusion system (VC3-8C, ALA Scientific Instruments). The bath solutions were perfused at a rate of 10 ml/min. […] Data acquisition was performed using the Windows PC-based program, WinEDR v3.0.6 (John Dempster, University of Strathclyde, UK).
Statistical analysis was performed using ANOVA with Tukey post hoc test, paired t-test or unpaired t-test.

[2] = tested on: AMPA receptor mediated EPSCs in hippocampal CA1 pyramidal neurons; assay: Whole-cell patch clamp, evoked AMPA receptor mediated EPSCs in CA1 pyramidal cells; type: cell-based, rat; details: n = 6
Protocol: Male Sprague-Dawley rats (postnatal Days 19–30) were sacrificed using an overdose of isoflurane or pentobarbitone (500 mg/kg). After decapitation the brain was rapidly removed, the hippocampus or entorhinal cortex-hippocampus slices was dissected from the brain and […] thick transverse slices were prepared on a VT1200S vibratome (Leica) or Vibratome (Vibratome® 1500 sectioning system, Intracell). The slicing was performed in ice-cold sucrose-based solution containing (in mM): 75 sucrose, 87 NaCl, 22 glucose, 2.5 KCl, 7 MgCl2, 1.25 NaH2PO4, 0.5 CaCl2 and 25 NaHCO3, pH 7.4, 315–330 mOsm equilibrated with 95% O2 plus 5% CO2. The slices were then stored in a continuously oxygenated humidified interface holding chamber containing oxygenated artificial CSF (in mM): 120 NaCl, 22 glucose, 2.5 KCl, 1.3 MgSO4, 1 NaH2PO4, 25 NaHCO3 and 2.5 CaCl2, pH 7.4 296 mOsm, where they recovered for at least 1 h before use.
For electrophysiological recording, the slices were placed in a recording chamber constantly perfused with 32–34°C oxygenated artificial CSF solution using a gravity-driven perfusion system. Whole-cell patch clamp recordings were performed on CA1 pyramidal cells (input resistance 330 ± 70 MΩ) visualized using an infrared differential contrast imaging system. For patching, standard walled borosilicate glass pipettes with a resistance of 2.5–3.5 MΩ were used, filled with an intracellular pipette solution containing (in mM): 120 Cs-methanesulphonate, 10 HEPES, 0.2 EGTA, 8 NaCl, 0.2 MgCl2, 2 Mg-ATP, 0.3Na-GTP, 5 QX314-Br, 10 phosphocreatine, pH adjusted to 7.2 and osmolality adjusted to 296 mOsm. Series resistance was monitored throughout experiments using a −5 mV step command and cells showing a >20% change in series resistance, a series of resistance of >20 MΩ or an unstable holding current were rejected. Recordings of excitatory postsynaptic currents (EPSCs) were performed in the presence of DL-APV (DL-2-amino-5-phosphonopentanoic; 100 µM), picrotoxin (100 µM) and CGP55845 (5 µM) to block NMDA-, GABAA- and GABAB-receptors, respectively. Decanoic acid (Sigma) was added to the perfusion solution. EPSCs were evoked by stimulation of Schaffer collaterals. Paired pulses were evoked with stimulations separated by 50 ms. Inhibitory postsynaptic current (IPSCs) were recorded in the presence of DL-APV (100 µM), NBQX (10 µM) and CGP55845 (5 µM) to block NMDA-, AMPA- and GABAB-receptors, respectively.
Recordings were obtained using a MultiClamp 700B amplifier (Axon instruments) and filtered at 4 kHz, digitized at 10 kHz, and stored on a PC. LabView8 (National instruments) was used for data acquisition and off-line analysis.

T1 sequence (P42262 22-883 isoform P42262-2 limits assumed): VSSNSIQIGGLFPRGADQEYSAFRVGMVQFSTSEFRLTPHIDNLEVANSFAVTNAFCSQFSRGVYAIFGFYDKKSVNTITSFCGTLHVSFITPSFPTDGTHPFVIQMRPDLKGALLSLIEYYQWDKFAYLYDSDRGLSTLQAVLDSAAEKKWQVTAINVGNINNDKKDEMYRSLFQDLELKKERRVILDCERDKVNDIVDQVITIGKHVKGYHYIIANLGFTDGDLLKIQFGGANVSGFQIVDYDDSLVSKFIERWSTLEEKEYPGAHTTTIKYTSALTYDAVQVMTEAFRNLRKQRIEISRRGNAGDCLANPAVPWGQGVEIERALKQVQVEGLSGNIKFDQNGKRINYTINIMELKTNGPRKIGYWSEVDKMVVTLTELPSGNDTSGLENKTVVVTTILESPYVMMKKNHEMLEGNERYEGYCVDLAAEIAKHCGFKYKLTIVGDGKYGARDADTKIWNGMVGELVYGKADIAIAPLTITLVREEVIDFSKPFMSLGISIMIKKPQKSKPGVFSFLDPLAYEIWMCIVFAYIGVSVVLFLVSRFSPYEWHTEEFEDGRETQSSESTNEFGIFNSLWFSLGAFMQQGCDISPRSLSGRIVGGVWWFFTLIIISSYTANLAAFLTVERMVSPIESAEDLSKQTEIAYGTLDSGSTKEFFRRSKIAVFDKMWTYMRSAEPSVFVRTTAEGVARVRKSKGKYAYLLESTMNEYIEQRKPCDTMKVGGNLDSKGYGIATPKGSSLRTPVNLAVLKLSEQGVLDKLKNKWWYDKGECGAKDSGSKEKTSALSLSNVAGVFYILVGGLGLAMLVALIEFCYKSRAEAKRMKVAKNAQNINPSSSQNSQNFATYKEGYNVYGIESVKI
T1 sequence (P42263 29-894 isoform P42263-2 limits assumed): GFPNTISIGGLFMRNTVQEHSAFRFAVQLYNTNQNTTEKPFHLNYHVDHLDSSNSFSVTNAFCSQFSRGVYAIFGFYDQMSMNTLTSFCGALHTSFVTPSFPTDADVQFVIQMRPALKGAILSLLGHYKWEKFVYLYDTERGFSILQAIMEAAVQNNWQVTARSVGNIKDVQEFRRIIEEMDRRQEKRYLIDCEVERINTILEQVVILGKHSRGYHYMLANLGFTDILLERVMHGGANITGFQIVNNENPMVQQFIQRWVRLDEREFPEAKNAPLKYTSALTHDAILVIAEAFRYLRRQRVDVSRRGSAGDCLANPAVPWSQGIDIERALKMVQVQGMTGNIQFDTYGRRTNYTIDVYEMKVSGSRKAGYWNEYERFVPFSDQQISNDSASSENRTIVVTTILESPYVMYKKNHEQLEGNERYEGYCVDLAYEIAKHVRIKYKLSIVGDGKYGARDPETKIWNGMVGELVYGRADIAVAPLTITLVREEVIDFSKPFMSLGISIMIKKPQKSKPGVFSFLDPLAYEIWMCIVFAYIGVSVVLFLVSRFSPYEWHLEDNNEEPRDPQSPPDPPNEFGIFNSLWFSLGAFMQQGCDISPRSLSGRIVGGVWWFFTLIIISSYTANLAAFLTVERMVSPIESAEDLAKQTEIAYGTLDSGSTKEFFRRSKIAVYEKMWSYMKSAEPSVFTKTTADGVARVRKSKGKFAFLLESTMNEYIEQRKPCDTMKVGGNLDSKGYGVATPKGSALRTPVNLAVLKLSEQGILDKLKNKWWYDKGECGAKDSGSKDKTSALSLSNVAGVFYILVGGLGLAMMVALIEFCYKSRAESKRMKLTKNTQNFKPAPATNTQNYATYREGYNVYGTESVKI

inhibition at 100 µM ([1]; 100 µM, read-out: inhibition of AMPA-mediated currents): ~20%
decrease in AMPA receptor responses ([1]; 1 mM): 60–70%
AMPA receptor current following activation with AMPA ([1]; agonist AMPA 30 µM, n = 8): 16.7 ± 2.7 % of AMPA alone
AMPA receptor currents ([1]; compound 1 mM, currents elicited by 100 µM L-glutamate, −50 mV): 32.4 ± 2.0 % of control
IC50 ([1]; glutamate 100 µM, membrane potential −40 mV, n = 6, read-out: IC50): 430 ± 90 µM
IC50 ([1]; glutamate 100 µM, membrane potential −80 mV, n = 6, read-out: IC50): 1110 ± 50 µM
IC50 ([1]; glutamate 100 µM, read-out: IC50, inhibition of glutamate-induced AMPA receptor current): 520 ± 20 µM
IC50 ([1]; glutamate 1 mM, n = 10, read-out: IC50, inhibition of glutamate-induced AMPA receptor current): 540 ± 30 µM
SMILES: CCCCCCCCCC(=O)O [decanoic acid]
decrease of EPSC amplitude ([2]; 100 µM): 17.0 ± 5.6%
decrease of EPSC amplitude ([2]; 300 µM): 38.9 ± 5.5%
effect on 1/CV^2 for EPSCs ([2]; 300 µM, versus baseline): no effect
effect on paired pulse ratio for EPSCs ([2]; 300 µM, versus baseline): did not affect

— publication PMC4805082, “Seizure control by decanoic acid through direct AMPA receptor inhibition” (Brain, 2015)
